Results: US8586611B2 (priority 2005, dated 2013)

Experiments:
Assay type in all cases: in vivo
Phytophthora infestans [1] = test: whole plant or invertebrate; details: tomato late blight; spray the day before inoculation; compounds without asterisk (not 40 or 10 ppm)
[2] = system: Erysiphe graminis f. sp. tritici; test: Test E: wheat powdery mildew, spray the day before inoculation (disease rating, 100 = 100% disease control); details: spray the day before inoculation, compounds without asterisk (not 40 or 10 ppm)
Source text: (§1) The test compounds were first dissolved in acetone in an amount equal to 3% of the final volume and then suspended at the desired concentration (in ppm) in acetone and purified water (50/50 mix by volume) containing 250 ppm of the surfactant Trem® 014 (polyhydric alcohol esters). The resulting test suspensions were then used in tests A-E. Spraying a 200 ppm test suspension to the point of run-off on the test plants was the equivalent of a rate of 500 g/ha.
The test suspension was sprayed to the point of run-off on wheat seedlings. The following day the seedlings were inoculated with a spore dust of Erysiphe graminis f. sp. tritici, (the causal agent of wheat powdery mildew) and incubated in a growth chamber at 20° C. for 7 days, after which disease ratings were made.
(§2) Results for Tests A-F are given in Table A. In the table, a rating of 100 indicates 100% disease control and a rating of 0 indicates no disease control (relative to the controls). A dash (-) indicates no test results.

Phytophthora infestans [3] = test: whole plant or invertebrate; details: tomato late blight; spray 17 h after inoculation; compounds without asterisk (not 40 or 10 ppm)
Plasmopara viticola = test: Test B: grape downy mildew, spray 24 h after inoculation (disease rating, 100 = 100% disease control); details: spray 24 h after inoculation, compounds without asterisk (not 40 or 10 ppm)
Source text: as §1
Grape seedlings were inoculated with a spore suspension of Plasmopara viticola (the causal agent of grape downy mildew) and incubated in a saturated atmosphere at 20° C. for 24 h. After a short drying period, the test suspension was sprayed to the point of run-off on the grape seedlings and then moved to a growth chamber at 20° C. for 5 days, after which the test units were placed back into a saturated atmosphere at 20° C. for 24 h. Upon removal, disease ratings were made.
as §2

Structure (SMILES) | Test C disease rating (100 = 100% disease control, 0 = no disease control) (Phytophthora infestans [1]) [%] | Test E disease rating (100 = 100% disease control, 0 = no disease control) [2] [%] | Test D disease rating (100 = 100% disease control, 0 = no disease control) (Phytophthora infestans [3]) [%] | Test B disease rating (100 = 100% disease control, 0 = no disease control) (Plasmopara viticola) [%]
Cc1ccc(C)c(CC(=O)N2CCC(c3nc(C(=O)N(C)[C@H](C)c4cccc(C(F)(F)F)c4)cs3)CC2)c1 [compound 56] | 93 | 0 | 0 | 31
Cc1cccc(CC(=O)N2CCC(c3nc(C(=O)N(C)C(C)c4ncc(Cl)cc4Cl)cs3)CC2)c1 (centres unmarked) [compound 61] | 69 | 0 | 0 | 2
CC(c1cccnc1)N(C)C(=O)c1csc(C2CCN(C(=O)Cc3cccc(C(F)(F)F)c3)CC2)n1 (centres unmarked) [compound 66] | 54 | 0 | 42 | 2
C[C@H](c1ccccc1)N(C)C(=O)c1csc(C2CCN(C(=O)Cn3cc(Br)cn3)CC2)n1 [compound 71] | 74 | 0 | 0 | 34
Cc1ccn(CC(=O)N2CCC(c3nc(C(=O)N(C)[C@H](C)c4ccccc4)cs3)CC2)n1 [compound 72] | 91 | 0 | 66 | 1
Cc1cnn(CC(=O)N2CCC(c3nc(C(=O)N(C)[C@H](C)c4ccccc4)cs3)CC2)c1 [compound 73] | 75 | 0 | 9 | 2
CC(c1ccncc1)N(C)C(=O)c1csc(C2CCN(C(=O)Cc3cccc(C(F)(F)F)c3)CC2)n1 (centres unmarked) [compound 76] | 79 | 0 | 0 | 0
CCOc1ccccc1CC(=O)N1CCC(c2nc(C(=O)N(C)[C@H](C)c3ccccc3)cs2)CC1 [compound 78] | 78 | 0 | 46 | 100
CCOc1cccc(CC(=O)N2CCC(c3nc(C(=O)N(C)[C@H](C)c4ccccc4)cs3)CC2)c1 [compound 79] | 77 | 0 | 0 | 82
C[C@H](c1ccccc1)N(C)C(=O)c1csc(C2CCN(C(=O)Cc3cccnc3)CC2)n1 [compound 83] | 31 | 0 | 0 | 14
C[C@H](c1ccccc1)N(C)C(=O)c1csc(C2CCN(C(=O)Cc3ccncc3)CC2)n1 [compound 84] | 44 | 0 | 0 | 41
CCCCC(c1ccccc1)N(C)C(=O)c1csc(C2CCN(C(=O)Cc3cc(C)ccc3C)CC2)n1 (centres unmarked) [compound 85] | 99 | 32 | 9 | 99
C[C@H](c1ccccc1)N(C)C(=O)c1csc(C2CCN(C(=O)Cc3cccs3)CC2)n1 [compound 88] | 33 | 0 | 0 | 43
COC(=O)Cc1ccccc1CC(=O)N1CCC(c2nc(C(=O)N(C)[C@H](C)c3ccccc3)cs2)CC1 [compound 90] | 26 | 0 | 9 | 17
Cc1nc(CC(=O)N2CCC(c3nc(C(=O)N(C)[C@H](C)c4ccccc4)cs3)CC2)cs1 [compound 91] | 99 | 0 | 79 | 16
C[C@H](c1ccccc1)N(C)C(=O)c1csc(C2CCN(C(=O)Cc3cc(C(C)(C)C)no3)CC2)n1 [compound 93] | 26 | 0 | 0 | 9
Cc1ccc(C)c(CC(=O)N2CCC(c3nc(C(=O)N(C)C(c4ccccc4)C(C)C)cs3)CC2)c1 (centres unmarked) [compound 96] | 100 | 0 | 49 | 98
Cc1ccc(C)c(CC(=O)N2CCC(c3nc(C(=O)N(C)C(CC(C)C)c4ccccc4)cs3)CC2)c1 (centres unmarked) [compound 97] | 86 | 0 | 0 | 53
Cc1ccc(C)c(CC(=O)N2CCC(c3nc(C(=O)N(C)C4CCc5ccccc5C4)cs3)CC2)c1 (centres unmarked) [compound 98] | 84 | 0 | 0 | 0
Cc1ccc(C)c(CC(=O)N2CCC(c3nc(C(=O)N(C)C4CCCc5ccccc54)cs3)CC2)c1 (centres unmarked) [compound 99] | 100 | 0 | 99 | 97
Cc1ccc(C)c(CC(=O)N2CCC(c3nc(C(=O)N(C)C4CCc5ccccc54)cs3)CC2)c1 (centres unmarked) [compound 100] | 100 | 0 | 99 | 94
Cc1cc(C)n(CC(=O)N2CCC(c3nc(C(=O)N(C)[C@H](C)c4ccccc4)cs3)CC2)c1 [compound 101] | 70 | 0 | 8 | 0
Cc1ccc(C)c(CC(=O)N2CCC(c3nc(C(=O)N(C)[C@H](C)c4ncc(Cl)cc4Cl)cs3)CC2)c1 [compound 111] | 99 | 98 | 37 | 96
Cc1ccc(C)c(CC(=O)N2CCC(c3nc(C(=O)N(C)C(C)c4cc(C)sc4C)cs3)CC2)c1 (centres unmarked) [compound 112] | 100 | 95 | 99 | 93
Cc1ccc(C)c(CC(=O)N2CCC(c3nc(C(=O)N(C)C(C)c4cc(C)oc4C)cs3)CC2)c1 (centres unmarked) [compound 113] | 97 | 0 | 31 | 0
CC[C@H](c1ccccc1)N(C)C(=O)c1csc(C2CCN(C(=O)Cc3cc(C(F)(F)F)ccc3Cl)CC2)n1 [compound 114] | 100 | 0 | 99 | 99
